Source: the Kinase Knowledgebase extract (Sharma et al. 2016)
pIC50: −log10 of the molar value.

Experiments:
[1] = biological target: EGFR (human) (UniProt P00533); conditions: a431
[2] = biological target: EGFR (human) (UniProt P00533); conditions: a549
[3] = biological target: EGFR (human) (UniProt P00533); conditions: snu638
[4] = biological target: EGFR (human) (UniProt P00533)

EGFR (human), sequence (P00533 whole entry, looked up): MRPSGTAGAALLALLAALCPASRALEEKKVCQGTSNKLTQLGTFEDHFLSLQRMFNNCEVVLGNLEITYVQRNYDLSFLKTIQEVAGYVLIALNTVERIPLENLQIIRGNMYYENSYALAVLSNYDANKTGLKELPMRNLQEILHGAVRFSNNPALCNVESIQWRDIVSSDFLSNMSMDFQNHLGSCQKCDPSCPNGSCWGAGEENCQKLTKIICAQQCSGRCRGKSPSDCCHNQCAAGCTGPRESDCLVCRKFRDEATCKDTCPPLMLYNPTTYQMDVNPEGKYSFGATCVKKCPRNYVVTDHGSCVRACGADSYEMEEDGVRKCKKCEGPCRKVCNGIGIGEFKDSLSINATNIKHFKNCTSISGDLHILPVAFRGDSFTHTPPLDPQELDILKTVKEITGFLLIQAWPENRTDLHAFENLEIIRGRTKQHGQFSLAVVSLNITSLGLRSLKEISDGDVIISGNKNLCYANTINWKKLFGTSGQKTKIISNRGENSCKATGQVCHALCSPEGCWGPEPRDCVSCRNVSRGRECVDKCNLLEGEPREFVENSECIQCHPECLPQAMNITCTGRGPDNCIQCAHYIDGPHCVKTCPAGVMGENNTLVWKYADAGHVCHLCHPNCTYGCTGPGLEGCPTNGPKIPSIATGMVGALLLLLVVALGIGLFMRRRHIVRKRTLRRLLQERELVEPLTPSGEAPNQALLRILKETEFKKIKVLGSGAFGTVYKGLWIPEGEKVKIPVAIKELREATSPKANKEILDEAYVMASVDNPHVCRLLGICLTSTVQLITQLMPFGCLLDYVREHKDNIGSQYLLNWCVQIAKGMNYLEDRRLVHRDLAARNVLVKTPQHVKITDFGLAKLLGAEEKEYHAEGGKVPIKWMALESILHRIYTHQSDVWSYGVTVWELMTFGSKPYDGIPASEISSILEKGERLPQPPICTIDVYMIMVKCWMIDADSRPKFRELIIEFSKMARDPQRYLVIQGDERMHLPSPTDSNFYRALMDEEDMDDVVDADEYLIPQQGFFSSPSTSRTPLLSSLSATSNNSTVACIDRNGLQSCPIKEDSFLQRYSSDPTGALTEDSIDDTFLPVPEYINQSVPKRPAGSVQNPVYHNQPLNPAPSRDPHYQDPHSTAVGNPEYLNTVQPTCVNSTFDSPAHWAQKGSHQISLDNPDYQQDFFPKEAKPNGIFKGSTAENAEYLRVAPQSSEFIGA

| SMILES | pIC50 [4] | GI50 [1] [nM] | GI50 [2] [nM] | GI50 [3] [nM] |
| --- | --- | --- | --- | --- |
| Fc1cc(Nc2ncnc3cc4c(cc23)OCCO4)ccc1Cl | – | 490 | 75900 | > 100000 |
| Clc1cccc(Nc2ncnc3cc4c(cc23)OCCO4)c1 | 8.08 | 190 | 4270 | 4680 |
| c1ccc(Nc2ncnc3cc4c(cc23)OCCO4)cc1 | – | 3800 | 45700 | 55000 |
| FC(F)(F)c1cccc(Nc2ncnc3cc4c(cc23)OCCO4)c1 | – | 140 | 2240 | 2750 |
| Cc1cc(C)cc(Nc2ncnc3cc4c(cc23)OCCO4)c1 | – | 120 | 230 | 170 |

Further lines, with some results ahead:

| pIC50 [4] | SMILES | GI50 [1] [nM] | GI50 [2] [nM] | GI50 [3] [nM] |
| --- | --- | --- | --- | --- |
| 7.20 | Ic1cccc(Nc2ncnc3cc4c(cc23)OCCO4)c1 | 1550 | 5620 | 6170 |
| 7.75 | Brc1cccc(Nc2ncnc3cc4c(cc23)OCCO4)c1 | 200 | 4370 | 5750 |
| 7.11 | Fc1ccc(Nc2ncnc3cc4c(cc23)OCCO4)cc1 | 1290 | 40700 | 49000 |
